This note sets out measurements from patent publication US4298617A, “Symmetrical and asymmetrical sulfinyl-dicarbamates” (priority 1979, dated 1981).

The subject of one data set is Swiss white mice. Put plainly: in vivo. As for the experimental part: (§1) Mammalian toxicity was determined against Swiss white mice. The test compound was applied orally using corn oil or propylene glycol as the carrier, depending upon solubility of the compound therein.
A further data set is described as follows: in vivo. To be noted: mouse, in vivo, po. The protocol: as §1
Data set [1] deals with house flies, Musca domestica. Put plainly: Topical insecticidal activity against house flies (percent mortality 24 hours after application). Format: in vivo. The note with it: read-out: House flies LD50. As for the experimental part: (§2) Representative compounds of the N,N'-sulfinyldicarbamate esters of the invention were tested for insecticidal activity against two insect species, house flies, Musca domestica, and mosquito larvae, Culex pipiens. Stock 1% concentrated solutions of each of the test compounds were made in acetone, and such solutions diluted with acetone to a concentration of 0.001-0.1%. House flies were treated topically on the notum by 1 μl of each of the diluted acetone solutions and percent mortality was counted 24 hours after application. Insects were held at a constant temperature of 60° F. Larvicidal activity was determined by applying 1 ml of the acetone solution in 100 ml of water containing 20 3rd instar mosquito larvae. Results are presented as LD50 in μg/g for house flies and LC50 in ppm for mosquito larvae.

Data set [2] has as its system mosquito larvae, Culex pipiens. Put plainly: Larvicidal activity against mosquito larvae. Format: in vivo. To be noted: 3rd instar larvae, 1 ml acetone solution in 100 ml water, 20 larvae. The protocol:
as §2

Where [3] appears, read: topical on the notum, 1 μl acetone solution, 24 hours, 60° F.

Where two headings read alike, the source gives them in different places.

Consider `CNC(=O)Oc1ccccc1OC(C)C` [2-isopropoxyphenyl methylcarbamate, reference compound], for which the “Mice LD50” value with Swiss white mice (oral, corn oil or propylene glycol carrier) came out at 60 mg/kg.
For `CCOC(=O)N(C)[S+]([O-])N(C)C(=O)Oc1cccc(C(C)C)c1` (centres unmarked) [3-isopropylphenyl N-[N'-(ethoxycarbonyl)-N'-(methylaminosulfinyl)]-N-methylcarbamate], the LD50 is 50 to 100 mg/kg in the data set “in vivo” and 75 mg/kg in data set [1] (topical, 24 h).
In the same order, the values of `CN(C(=O)Oc1cccc2c1OC(C)(C)C2)[S+]([O-])N(C)C(=O)Oc1cccc2c1OC(C)(C)C2` [Example I, N,N'-sulfinyldi-(2,3-dimethyl-2,3-dihydrobenzofuranyl-7 methylcarbamate)] are 165 mg/kg and 20 mg/kg.
Consider `CC(C)Oc1ccccc1OC(=O)N(C)[S+]([O-])N(C)C(=O)Oc1ccccc1OC(C)C` [Example II, N,N'-sulfinyldi-(2-isopropoxyphenyl methylcarbamate)], for which the LD50 worked out at 940 mg/kg in the data set “in vivo” and 85 mg/kg in data set [1] (topical, 24 h).
Turning to `CSC(C)=NOC(=O)N(C)[S+]([O-])N(C)C(=O)ON=C(C)SC` [Example III], the LD50 was found to be 210 mg/kg in the data set “in vivo” and 40 mg/kg in data set [1] (setting [3]).
As to `COC(=O)N(C)[S+]([O-])N(C)C(=O)Oc1cccc2c1OC(C)(C)C2` (centres unmarked) [Example VII, 2,3-dihydro-2,2-dimethylbenzofuranyl-7 N-[N'-(methoxycarbonyl)-N'-(methylaminosulfinyl)]-N-methylcarbamate], the LD50 in “in vivo” amounted to 62 mg/kg; in data set [1] (topical, 24 h), 9 mg/kg.
Consider `CCCOC(=O)N(C)[S+]([O-])N(C)C(=O)ON=C(C)SC` (centres unmarked) [Example VI], for which the LD50 in “in vivo” was 160 mg/kg; in data set [1] (setting [3]) it was 6.6 mg/kg.
On to `CCCOC(=O)N(CC)[S+]([O-])N(C)C(=O)ON=C(C)SC` (centres unmarked) [Example V], for which the LD50 in “in vivo” is 115 mg/kg; in data set [1] (setting [3]), 7 mg/kg.
In the same order, the values of `CSC(C)(C)C=NOC(=O)N(C)[S+]([O-])N(C)C(=O)ON=CC(C)(C)SC` [IV, N,N'-sulfinyldi[2-methyl-2-(methylthio)propionaldehyde O-(methylcarbamoyl)-oxime]] are 1.8 mg/kg and 6.5 mg/kg.
`CCCOC(=O)N(C)[S+]([O-])N(C)C(=O)Oc1cccc2c1OC(C)(C)C2` (centres unmarked) [IX, 2,3-dihydro-2,2-dimethylbenzofuranyl-7 N-[N'-(n-propoxycarbonyl)-N'-(methylaminosulfinyl)]-N-methylcarbamate]: the LD50 in the data set “in vivo” was found to be 100 mg/kg; in data set [1] (topical, 24 h), 9 mg/kg.
`CNC(=O)ON=C(C)SC` [S-methyl N-(methylcarbamoyloxy)thioacetimidate, reference compound] registered an LD50 in “in vivo” of 10 mg/kg.
For `CCOC(=O)N(C)[S+]([O-])N(C)C(=O)Oc1cccc2c1OC(C)(C)C2` (centres unmarked) [VIII, 2,3-dihydro-2,2-dimethylbenzofuranyl-7 N-[N'-(ethoxycarbonyl)-N'-(methylaminosulfinyl)]-N-methylcarbamate], the LD50 in “in vivo” was found to be 56 mg/kg; in data set [1] (topical, 24 h), 13 mg/kg. Also, the “Culex LC50” value in data set [2] is reported as 0.04 ppm.
Turning to `CCCCCCCOC(=O)N(C)[S+]([O-])N(C)C(=O)Oc1cccc2c1OC(C)(C)C2` (centres unmarked) [X, 2,3-dihydro-2,2-dimethylbenzofuranyl-7 N-[N'-(n-heptoxycarbonyl)-N'-(methylaminosulfinyl)]-N-methylcarbamate], the LD50 in “in vivo” was 150 mg/kg; in data set [1] (topical, 24 h), 13.5 mg/kg. Besides, in data set [2], the “Culex LC50” value is 0.015 ppm.
With `CCCOC(=O)N(C)[S+]([O-])N(C)C(=O)Oc1ccccc1OC(C)C` (centres unmarked) [XI, 2-isopropoxyphenyl N-[N'-(n-propoxycarbonyl)-N'-(methylaminosulfinyl)]-N-methylcarbamate], the LD50 in “in vivo” was 500 to 1000 mg/kg; in data set [1] (topical, 24 h), 20 mg/kg. Moreover, the “Culex LC50” value in data set [2] turned out to be 0.18 ppm.
Regarding `COC(=O)N(C)[S+]([O-])N(C)C(=O)Oc1cccc(C(C)C)c1` (centres unmarked) [XII, 3-isopropylphenyl N-[N'-(methoxycarbonyl)-N'-(methylaminosulfinyl)]-N-methylcarbamate], the LD50 was 70 mg/kg in “in vivo” and 80 mg/kg in data set [1] (topical, 24 h).
Consider `CNC(=O)Oc1cccc2c1OC(C)(C)C2` [carbofuran, 2,3-dihydro-2,2-dimethyl-7-benzofuranyl methylcarbamate, reference compound], for which the “Mice LD50” value with Swiss white mice (mouse, in vivo, po) is listed as 2-8.
